Experimental findings from patent US20240270821A1, “GIP/GLP1/GCG TRI-RECEPTOR AGONISTS AND USES THEREOF” (priority 2023, published 2024) are described below.

Read-outs that look alike come from different tables or passages of the source. Starred links: 1 amine or outer side, 2 acyl side, 3 side chain; linkers in the order of their positions; H or OH if unused. Non-standard residues stand in square brackets, D forms with d. Groups on a side chain read outwards from the residue. No end group written: not given here. *: point of attachment. C20 diacid = O=C(O)CCCCCCCCCCCCCCCCCCC(=O)*; C18 diacid = O=C(O)CCCCCCCCCCCCCCCCC(=O)*; αMePhe(2-F) = C[C@](N)(Cc1ccccc1F)C(=O)O; γGlu = O=C(O)[C@H](CCC(=O)[*:2])N[*:1]; NMeY = CN[C@@H](Cc1ccc(O)cc1)C(=O)O; αMe4Pal = C[C@](N)(Cc1ccncc1)C(=O)O; αMeY = C[C@](N)(Cc1ccc(O)cc1)C(=O)O; αMeF = C[C@](N)(Cc1ccccc1)C(=O)O; 4Pal = N[C@@H](Cc1ccncc1)C(=O)O; αMeL = CC(C)C[C@](C)(N)C(=O)O; αMeS = C[C@](N)(CO)C(=O)O; Orn = NCCC[C@H](N)C(=O)O; AEEA = NCCOCCOCC(=O)O; Aib = CC(C)(N)C(=O)O

Broadly, the EC50 is the concentration giving half of the maximal effect.

What all share (assay type): cell-based
Experiment [1] has as its target T1, hGIPR (Homo sapiens, UniProt P48546).
T1 sequence (P48546 22-466): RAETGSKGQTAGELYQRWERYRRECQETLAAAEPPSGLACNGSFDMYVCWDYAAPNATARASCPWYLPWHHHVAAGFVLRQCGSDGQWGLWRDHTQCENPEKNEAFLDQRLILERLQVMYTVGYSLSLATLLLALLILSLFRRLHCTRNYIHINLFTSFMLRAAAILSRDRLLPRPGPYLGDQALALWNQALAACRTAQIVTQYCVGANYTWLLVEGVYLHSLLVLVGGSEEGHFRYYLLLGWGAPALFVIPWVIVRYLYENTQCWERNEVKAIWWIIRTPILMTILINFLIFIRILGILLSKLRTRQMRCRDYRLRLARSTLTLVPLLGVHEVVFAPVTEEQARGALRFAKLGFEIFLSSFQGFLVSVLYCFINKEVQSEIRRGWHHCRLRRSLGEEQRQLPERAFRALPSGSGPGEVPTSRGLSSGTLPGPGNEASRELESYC
Description: Functional cAMP activation in the presence of 0.1% casein (no HSA). As to conditions: read-out: Relative cAMP EC50, hGIPR.

Experiment [2] has as its target T1, hGIPR. Description: Functional cAMP activity in the presence of 1% HSA. As to conditions: read-out: cAMP Rel EC50, hGIPR.
The target in experiment [3] is T2, hGLP-1R (Homo sapiens, UniProt P43220). Nature of the experiment: Functional cAMP activation in the presence of 0.1% casein (no HSA). As to conditions: read-out: Relative cAMP EC50, hGLP-1R.
T2 sequence (P43220 24-463): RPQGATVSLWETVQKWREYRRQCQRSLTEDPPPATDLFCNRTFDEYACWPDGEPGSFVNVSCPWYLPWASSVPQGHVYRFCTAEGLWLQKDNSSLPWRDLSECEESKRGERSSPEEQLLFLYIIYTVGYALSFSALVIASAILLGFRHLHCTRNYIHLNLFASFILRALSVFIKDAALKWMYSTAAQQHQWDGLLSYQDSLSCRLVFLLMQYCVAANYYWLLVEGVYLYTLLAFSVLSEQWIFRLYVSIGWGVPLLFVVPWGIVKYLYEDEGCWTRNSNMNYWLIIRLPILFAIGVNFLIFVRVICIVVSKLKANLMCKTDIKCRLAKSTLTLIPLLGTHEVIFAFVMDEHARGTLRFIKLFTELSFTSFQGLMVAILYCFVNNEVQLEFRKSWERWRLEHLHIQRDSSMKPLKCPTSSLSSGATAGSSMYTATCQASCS
Experiment [4] concerns the target hGcgR (Homo sapiens, UniProt P47871). Described as above. As to conditions: read-out: Relative cAMP EC50, hGcgR.
Experiment [5] addresses human GcgR (Homo sapiens, UniProt P47871). Nature of the experiment: Functional cAMP activity in the presence of 1% HSA. As to conditions: read-out: cAMP Rel EC50, hGcgR.
Experiment [6] addresses T2, hGLP-1R. Description: Functional cAMP activity in the presence of 1% HSA. As to conditions: read-out: cAMP Rel EC50, hGLP-1R.
Setting [7] is: in the presence of 0.1% casein (no HSA), geometric mean.
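For Relative cAMP EC50, hGIPR in this document: intracellular cAMP rise after 30 min at 37 °C read by HTRF against a standard curve, scaled between buffer alone (0%) and top control ligand concentration (100%), four-parameter fit.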
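For Relative cAMP EC50, hGLP-1R in this document: intracellular cAMP rise after 30 min at 37 °C read by HTRF, normalized between buffer only (0%) and maximal control ligand (100%), four-parameter variable-slope fit.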
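For Relative cAMP EC50, hGcgR in this document: intracellular cAMP rise after 30 min at 37 °C, read by HTRF against a cAMP standard curve, scaled from buffer only (0%) to maximal control ligand response (100%).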

Sequence of human GcgR (P47871 26-477): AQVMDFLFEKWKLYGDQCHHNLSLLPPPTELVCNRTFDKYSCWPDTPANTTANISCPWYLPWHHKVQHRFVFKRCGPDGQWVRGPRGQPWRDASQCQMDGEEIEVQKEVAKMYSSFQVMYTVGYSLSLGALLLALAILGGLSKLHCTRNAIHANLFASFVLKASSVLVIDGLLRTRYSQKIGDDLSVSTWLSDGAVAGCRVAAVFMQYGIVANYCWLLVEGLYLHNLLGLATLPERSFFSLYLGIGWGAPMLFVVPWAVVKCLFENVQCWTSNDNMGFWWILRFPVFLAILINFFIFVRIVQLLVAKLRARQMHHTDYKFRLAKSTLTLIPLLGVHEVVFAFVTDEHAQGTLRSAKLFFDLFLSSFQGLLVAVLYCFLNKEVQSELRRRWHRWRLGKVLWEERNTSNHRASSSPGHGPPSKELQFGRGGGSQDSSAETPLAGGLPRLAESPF
Sequence of hGcgR (P47871 26-477): as above

“Y[Aib]QGTFTSD[4Pal]SR[αMeL]LDKK([AEEA-γGlu-C18 diacid])AQ[αMe4Pal]AFIE[αMeY]LIEGGPSSGAPPPSGS-NH2 [Example 843]”: the EC50 in experiment [1] (setting [7]) came out at 0.334 nM; in experiment [2], 32.8 nM; in experiment [3] (setting [7]) it was 0.874 nM; in experiment [4] (setting [7]), 3.41 nM; in experiment [5], 367 nM; in experiment [6], 135 nM.
For the compound “H-Y[Aib]QGT[αMeF]TSD[4Pal][αMeS]I[αMeL]LD[Orn]K([AEEA-γGlu-C18 diacid])AQ[αMe4Pal]EFI[dE][αMeY]LIEGGPSSGAPPPSGSE-NH2 [Example 1166]”, the EC50 in experiment [1] (setting [7]) is 0.00999 nM; in experiment [2], 1.1 nM; in experiment [3] (setting [7]) it was 0.478 nM; in experiment [4] (setting [7]), 2.94 nM; in experiment [5], 427 nM; in experiment [6] it was 65.6 nM.
On to “Y[Aib]QGTFTSD[4Pal]SQ[αMeL]LDKK([γGlu-dE-dE-C18 diacid])AQ[αMe4Pal]AFIEYLIE[Aib]GPSSGAPPPSGSE-NH2 [Example 926]”, for which the EC50 worked out at 0.166 nM in experiment [1] (setting [7]); 13.5 nM in experiment [2]; 7.71 nM in experiment [3] (setting [7]); 13.2 nM in experiment [4] (setting [7]); 1380 nM in experiment [5]; 600 nM in experiment [6].
On to “H-Y[Aib]QGTFTSDYSI[αMeL]LDKQAAK([AEEA-AEEA-γGlu-C20 diacid])QFVNWLLA[Aib]GPSSGEPPPSEG-NH2 [Example 325]”, for which the EC50 was 0.351 nM in experiment [1] (setting [7]); 82.7 nM in experiment [2]; 1.56 nM in experiment [3] (setting [7]); 2.43 nM in experiment [4] (setting [7]); 774 nM in experiment [5]; 371 nM in experiment [6].
For “Y[Aib]QGT[αMePhe(2-F)]TSD[4Pal]SI[αMeL]LD[Orn]K([AEEA-γGlu-C18 diacid])AQ[αMe4Pal][Orn]FI[dE][αMeY]LIEGGPSSGEPPPEGT[dE]-NH2 [Example 691]”, the EC50 is 0.0117 nM in experiment [1]; 1.17 nM in experiment [2]; 0.26 nM in experiment [3]; 2.46 nM in experiment [4]; 308 nM in experiment [5]; 28.9 nM in experiment [6].
Turning to “H-Y[Aib]QGTFTSD[4Pal]S[Orn][αMeL]LDKK([γGlu-γGlu-C18 diacid])AQ[αMe4Pal]AFIEYLIAGGPSSGEPPPSGE-NH2 [Example 979]”, the EC50 in experiment [1] (setting [7]) was 0.181 nM; in experiment [2], 19.2 nM; in experiment [3] (setting [7]), 2.72 nM; in experiment [4] (setting [7]), 3.34 nM; in experiment [5], 359 nM; in experiment [6], 257 nM.
In the case of `CC[C@H](C)[C@H](NC(=O)[C@H](CC(C)C)NC(=O)[C@](C)(Cc1ccc(O)cc1)NC(=O)[C@@H](CCC(=O)O)NC(=O)[C@@H](NC(=O)[C@H](Cc1ccccc1)NC(=O)[C@H](CCC(=O)O)NC(=O)C(C)(C)NC(=O)[C@H](C)NC(=O)[C@H](C)NC(=O)[C@H](CCCCNC(=O)COCCOCCNC(=O)CC[C@H](NC(=O)CCCCCCCCCCCCCCCCC(=O)O)C(=O)O)NC(=O)[C@H](CCCN)NC(=O)[C@H](CC(=O)O)NC(=O)[C@H](CC(C)C)NC(=O)[C@](C)(CC(C)C)NC(=O)[C@@H](NC(=O)[C@](C)(CO)NC(=O)[C@H](Cc1ccncc1)NC(=O)[C@H](CC(=O)O)NC(=O)[C@H](CO)NC(=O)[C@@H](NC(=O)[C@](C)(Cc1ccccc1F)NC(=O)[C@@H](NC(=O)CNC(=O)[C@H](CCC(N)=O)NC(=O)C(C)(C)NC(=O)[C@@H](N)Cc1ccc(O)cc1)[C@@H](C)O)[C@@H](C)O)[C@@H](C)CC)[C@@H](C)CC)C(=O)N[C@@H](CCC(=O)O)C(=O)NCC(=O)NCC(=O)N1CCC[C@H]1C(=O)N[C@@H](CO)C(=O)N[C@@H](CO)C(=O)NCC(=O)N[C@@H](C)C(=O)N1CCC[C@H]1C(=O)N1CCC[C@H]1C(=O)N1CCC[C@H]1C(=O)N[C@@H](CO)C(=O)NCC(=O)N[C@@H](CO)C(N)=O` [Example 671], the EC50 in experiment [1] amounted to 0.00807 nM; in experiment [2], 0.657 nM; in experiment [3], 0.166 nM; in experiment [4] it was 1.81 nM; in experiment [5] it was 152 nM; in experiment [6], 17.6 nM.
As to “H-Y[Aib]QGTFTSD[4Pal]SQ[αMeL]LDKK([γGlu-γGlu-C18 diacid])AQ[αMe4Pal]AFIEYLIAGGPSSGAPPPEGS-NH2 [Example 969]”, the EC50 in experiment [1] (setting [7]) is 0.142 nM; in experiment [2], 12.6 nM; in experiment [3] (setting [7]), 1.21 nM; in experiment [4] (setting [7]), 5.48 nM; in experiment [5], 660 nM; in experiment [6] it was 113 nM.
With “H-Y[Aib]QGTFTSD[4Pal]SQ[αMeL]LD[Orn]K([AEEA-γGlu-C18 diacid])AQ[αMe4Pal]AFIE[αMeY]LIEGGPSSGAPPPSGSEE-NH2 [Example 1041]”, the EC50 amounted to 0.365 nM in experiment [1] (setting [7]); 75.7 nM in experiment [2]; 1.24 nM in experiment [3] (setting [7]); 7.71 nM in experiment [4] (setting [7]); 1720 nM in experiment [5]; 316 nM in experiment [6].
As to “H-Y[Aib]QGTFTSD[4Pal]SQ[αMeL]LDKK([γGlu-γGlu-C18 diacid])AQ[αMe4Pal]AFIEWLIEGGPSSGAPPPSGS-NH2 [Example 872]”, the EC50 in experiment [1] (setting [7]) stood at 0.205 nM; in experiment [2], 30.1 nM; in experiment [3] (setting [7]), 1.01 nM; in experiment [4] (setting [7]) it was 4.18 nM; in experiment [5] it was 1890 nM; in experiment [6], 287 nM.
For “Y[Aib]QGT[αMeF]TSD[4Pal][αMeS]I[αMeL]LD[Orn]K([AEEA-γGlu-C18 diacid])AQ[αMe4Pal]EFI[dE][αMeY]LIEGGPSSGEPPPSGGGE-NH2 [Example 1169]”, the EC50 in experiment [1] (setting [7]) turned out to be 0.011 nM; in experiment [2] it was 1.18 nM; in experiment [3] (setting [7]) it was 0.613 nM; in experiment [4] (setting [7]), 2.43 nM; in experiment [5], 304 nM; in experiment [6], 80 nM.
For “Y[Aib]QGT[αMePhe(2-F)]TSD[4Pal][αMeS]I[αMeL]LD[Orn]K([AEEA-γGlu-C18 diacid])YQ[αMe4Pal]EFI[dE][αMeY]LVEGGPSSGAPPPSGS-NH2 [Example 767]”, the EC50 in experiment [1] is 0.00792 nM; in experiment [2], 1.51 nM; in experiment [3], 0.299 nM; in experiment [4], 1.13 nM; in experiment [5], 207 nM; in experiment [6], 56.8 nM.
Take `CC[C@H](C)[C@H](NC(=O)[C@H](Cc1ccccc1)NC(=O)[C@H](C)NC(=O)C(C)(C)NC(=O)[C@H](CCC(N)=O)NC(=O)[C@H](C)NC(=O)[C@H](CCCCNC(=O)COCCOCCNC(=O)CC[C@H](NC(=O)CCCCCCCCCCCCCCCCC(=O)O)C(=O)O)NC(=O)[C@H](CCCCN)NC(=O)[C@H](CC(=O)O)NC(=O)[C@H](CC(C)C)NC(=O)[C@](C)(CC(C)C)NC(=O)[C@H](CCCCN)NC(=O)[C@H](CO)NC(=O)[C@H](Cc1ccncc1)NC(=O)[C@H](CC(=O)O)NC(=O)[C@H](CO)NC(=O)[C@@H](NC(=O)[C@H](Cc1ccccc1)NC(=O)[C@@H](NC(=O)CNC(=O)[C@H](CCC(N)=O)NC(=O)C(C)(C)NC(=O)[C@@H](N)Cc1ccc(O)cc1)[C@@H](C)O)[C@@H](C)O)C(=O)N[C@@H](CCC(=O)O)C(=O)N[C@@H](Cc1ccc(O)cc1)C(=O)N[C@@H](CC(C)C)C(=O)N[C@H](C(=O)N[C@@H](CCC(=O)O)C(=O)N[C@H](C)C(=O)NCC(=O)N[C@@H](CCC(=O)O)C(=O)N[C@@H](CO)C(=O)N[C@@H](CO)C(=O)NCC(=O)N[C@@H](C)C(=O)N1CCC[C@H]1C(=O)N1CCC[C@H]1C(=O)N1CCC[C@H]1C(=O)N[C@@H](CO)C(=O)NCC(=O)N[C@@H](CO)C(N)=O)[C@@H](C)CC` [Example 283]: the EC50 in experiment [1] (setting [7]) was found to be 0.225 nM; in experiment [2], 47.2 nM; in experiment [3] (setting [7]), 1.16 nM; in experiment [4] (setting [7]), 9.73 nM; in experiment [5], 1470 nM; in experiment [6] it was 233 nM.
Regarding “H-Y[Aib]QGTFTSD[4Pal]SQ[αMeL]LD[Orn]K([γGlu-γGlu-C18 diacid])AQ[αMe4Pal]AFIEYLIA[Aib]GPSSGEPPPSGSEE-NH2 [Example 1092]”, the EC50 is 0.0648 nM in experiment [1] (setting [7]); 7.83 nM in experiment [2]; 1.33 nM in experiment [3] (setting [7]); 3.45 nM in experiment [4] (setting [7]); 506 nM in experiment [5]; 230 nM in experiment [6].
As to “H-[NMeY][Aib]QGT[αMeF]TSDYSILLDKIAAK([AEEA-AEEA-γGlu-C20 diacid])AFIEYLIEGGPSSGEPPPSEG-NH2 [Example 299]”, the EC50 in experiment [1] (setting [7]) came to 0.137 nM; in experiment [2] it was 40.2 nM; in experiment [3] (setting [7]), 0.963 nM; in experiment [4] (setting [7]) it was 2.54 nM; in experiment [5], 1700 nM; in experiment [6], 380 nM.
On to “H-Y[Aib]QGTFTSD[4Pal]SK[αMeL]LDKK([AEEA-γGlu-C18 diacid])AQ[αMe4Pal]AFIEYLIE[Aib]GPSSGAPPPSGS-NH2 [Example 915]”, for which the EC50 in experiment [1] (setting [7]) was determined as 0.0988 nM; in experiment [2], 15.3 nM; in experiment [3] (setting [7]), 1.5 nM; in experiment [4] (setting [7]), 0.882 nM; in experiment [5], 174 nM; in experiment [6] it was 226 nM.
